From PubChem BioAssay (NCI)
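Values below derive from 48-hour exposures of cells grown in 96-well plates, with endpoints linearly interpolated between the two concentrations bracketing the appropriate inhibition level. The concentration for 50% growth inhibition is given as GI50. Definition used: TGI = concentration required for complete inhibition of growth.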 Where a SMILES comes first, the peptide text is derived from it. [ ]: non-standard residue; d: D form. The star is where a group is joined. NMeF = CN[C@@H](Cc1ccccc1)C(=O)O; NMeV = CN[C@H](C(=O)O)C(C)C; Boc = CC(C)(C)OC(=O)*; OBn = c1ccc(CO*)cc1

What was measured:
Test in all cases: DTP human tumour cell line panel, 48 h
[1] = test system: SF-268 CNS
[2] = test system: NCI-H460 lung
[3] = test system: M14 melanoma
[4] = test system: OVCAR-4 ovarian
[5] = test system: MDA-MB-231 breast
[6] = test system: MALME-3M melanoma
[7] = test system: OVCAR-5 ovarian
[8] = test system: SK-MEL-2 melanoma
[9] = test system: A549 NSCLC
[10] = test system: HL-60(TB) leukemia

Structure (SMILES) | GI50 [1] | TGI [1] | GI50 [2] | TGI [2] | GI50 [3] | TGI [3] | GI50 [4] | TGI [4] | GI50 [5] | TGI [5] | GI50 [6] | TGI [6] | GI50 [7] | TGI [7] | GI50 [8] | TGI [8] | GI50 [9] | TGI [9] | GI50 [10] | TGI [10]
O=C1CCC(N2Cc3c(C#CCCCNC(=O)c4cc5c(o4)C(=O)c4ccccc4C5=O)cccc3C2=O)C(=O)N1 (stereo not given) | 3.06 µM | 11.2 µM | 1.99 µM | 4.09 µM | 1.85 µM | 3.59 µM | 1.88 µM | 4.73 µM | 2.92 µM | 19.6 µM | 0.988 µM | 2.19 µM | 15.6 µM | 29.7 µM | 2.54 µM | 6.47 µM | 12.6 µM | 32.9 µM | 2370 nM | 7.34 µM
COc1cc(-n2cnc(-c3ccc(Cl)cc3)c2)cc(OC)c1OC | 22.9 µM | 63.2 µM | 18.6 µM | 36.8 µM | 73 µM | > 100 µM | 15.8 µM | 46.6 µM | 85.7 µM | > 100 µM | 16.1 µM | 32.9 µM | 18.6 µM | 45.4 µM | 18.3 µM | 40.1 µM | > 100 µM | > 100 µM | 15300 nM | 35.4 µM
CCCC(=O)Nc1ccc2c(c1)CN1C(=O)c3ccccc3C1=N2 |  | > 100 µM |  | > 100 µM |  | > 100 µM |  | > 100 µM |  | > 100 µM |  | > 100 µM |  | > 100 µM |  | > 100 µM |  | > 100 µM |  | > 100 µM
Cn1ccnc1C(=O)/C=C/c1ccc(CC(=O)Nc2ccc(F)cc2)cc1 | 2.89 µM | 13.5 µM | 1.8 µM | 9.89 µM | 3.23 µM | 7.95 µM | 5.68 µM | > 25 µM | 2.96 µM | 12.8 µM | 5.28 µM | 14.9 µM | 4.36 µM | 10.9 µM | 7.01 µM | 23.7 µM | 6.43 µM | > 25 µM | 1600 nM | 12.4 µM
CCn1c(-c2nonc2N)nc2cncc(C(=O)NCCNC)c21 | 7.78 µM | > 25 µM | 8.59 µM | > 25 µM | 17.2 µM | > 25 µM | > 22.8 µM | > 25 µM | > 25 µM | > 25 µM | 5.7 µM | > 25 µM | 0.441 µM | > 25 µM | 5.27 µM | > 25 µM | 4.47 µM | > 23.3 µM | > 25000 nM | > 25 µM
CCN(CC)CCCCNc1ncc2cc(-c3cc(OC)cc(OC)c3)c(NC(=O)NC(C)(C)C)nc2n1 | 5.47 µM | 21.1 µM | 6.85 µM | 20.8 µM | 3.1 µM | 9.65 µM | 1.84 µM | 25.5 µM | 5.89 µM | 17 µM | 1.96 µM | 4.17 µM | 15.5 µM | 31.4 µM | 3.67 µM | 13 µM | 7.84 µM | 23 µM | 1990 nM | 4.8 µM
COc1ccc2cc(Cn3cc[n+](Cc4ccc5ccccc5c4)c3)ccc2c1 | 2.53 µM | 11.8 µM | 3.24 µM | 12.7 µM | 1.77 µM | 4.21 µM | 2.27 µM | 8.06 µM | 1.55 µM | 3.81 µM | 1.53 µM | 4.03 µM | 2.7 µM | 12.5 µM | 1.91 µM | 4.65 µM | 8.16 µM | 23.7 µM | 1340 nM | 3.89 µM
N#CCCSC(=S)C1CCCC1=N (stereo not given) |  | > 100 µM |  | > 100 µM |  | > 100 µM |  | > 100 µM |  | > 100 µM |  | > 100 µM |  | > 100 µM |  | > 100 µM |  | > 100 µM |  | > 100 µM
C=CC[C@@H]1/C=C(\C)C[C@H](C)C[C@H](OC)[C@H]2O[C@@](O)(C(=O)C(=O)N3CCCC[C@H]3C(=O)O[C@H](/C(C)=C/C3CC[C@@H](O)[C@H](OC)C3)[C@H](C)[C@@H](O)CC1=O)[C@H](C)C[C@@H]2OC (stereo not given in full) | 13.8 µM | 27.3 µM | 13.7 µM | 27.9 µM | 14.9 µM | 28.6 µM | 13.9 µM | 27.2 µM | 15.8 µM | 31.4 µM | 14.6 µM | 32.1 µM | 17.2 µM | 37.2 µM | 17.4 µM | 33.4 µM | 12.7 µM | 25.7 µM | 16400 nM | 38.4 µM
NC1=CC(=O)c2nc3ccccc3c3ccnc1c23 | 4.26 µM | 22.1 µM | 0.0908 µM | 4.6 µM | 0.342 µM | 26.7 µM | 7.7 µM | > 59 µM | 16.9 µM | > 70.1 µM | 0.0856 µM | 0.556 µM | 13.8 µM | 62 µM | 9.45 µM | 32.1 µM | 0.132 µM | > 21.6 µM | 6380 nM | > 58.8 µM
CNC(=O)NC(CCCCNC(=O)OCc1ccccc1)C(=O)OCc1ccccc1 (stereo not given) |  | > 100 µM |  | > 100 µM |  | 43 µM |  | > 100 µM |  | > 73.9 µM |  | 64.9 µM |  | 98.2 µM |  | 38.4 µM |  | > 100 µM |  | 65.6 µM
CCOC(=O)c1c(Cl)c2c(n1Cc1cccc(OC)c1)-c1oncc1CC2 | 9.31 µM | > 100 µM | 0.659 µM | 13.7 µM | 2.07 µM | > 100 µM | 6.46 µM | > 100 µM | 4.61 µM | > 100 µM | 0.646 µM | 96.2 µM | 10.1 µM | > 100 µM | 5.61 µM | 67.3 µM | 5.16 µM | > 100 µM | 557 nM | 5.81 µM
CC(C)[C@@H](C(=O)N1CCC[C@H]1C(=O)OCc1ccccc1)N(C)C(=O)[C@H](C(C)C)N(C)C(=O)[C@H](Cc1ccccc1)N(C)C(=O)[C@H](NC(=O)OC(C)(C)C)C(C)C (Boc-[dV][NMeF][NMeV][NMeV]P-OBn) | > 100 µM | > 100 µM | 17.5 µM | > 100 µM | 41.7 µM | > 100 µM |  | > 100 µM |  | > 50 µM |  | > 100 µM |  | > 100 µM |  | > 100 µM | > 100 µM | > 100 µM | 21900 nM | > 100 µM
Cc1cc(C)c2nc3nc(C)cc(C)c3c(N)c2c1 | 5.38 µM | 21.6 µM | 3.15 µM | 11 µM | 4.53 µM | 16.1 µM | 3.63 µM | 19.8 µM | 5.17 µM | 28.6 µM | 4.19 µM | 16.6 µM | 4.3 µM | 29.5 µM | 6.89 µM | 21.7 µM | 4.34 µM | > 100 µM | 2740 nM | 12.9 µM
